The record followed here is patent US11142524B2, “Substituted-3H-imidazo[4,5-c]pyridine and 1H-pyrrolo[2,3-c]pyridine series of novel Ectonucleotide Pyrophosphatase/Phosphodiesterase-1 (ENPP1) and stimulator for interferon genes (STING) modulators as cancer immunotherapeutics” (Stingray Therapeutics, Inc., priority 2018, dated 2021).

Where two headings read alike, the source gives them in different places.

The subject of one assay is Saos-2 Cells. Description: ENPP1 Mineralization Assay. The format is cell-based. The settings on record: FIG. 9, mineralization components for 3 days.
Another assay deals with ENPP1 protein (Homo sapiens (Human), UniProt P22413). Description: ENPP1 Thermal Shift Assay (Example 1). Format: binding. The settings on record: Table 2, FIG. 7, 100 μM drug, 1.0 μg ENPP1.
Chain of ENPP1 protein (P22413 whole entry, looked up, stated change not applied): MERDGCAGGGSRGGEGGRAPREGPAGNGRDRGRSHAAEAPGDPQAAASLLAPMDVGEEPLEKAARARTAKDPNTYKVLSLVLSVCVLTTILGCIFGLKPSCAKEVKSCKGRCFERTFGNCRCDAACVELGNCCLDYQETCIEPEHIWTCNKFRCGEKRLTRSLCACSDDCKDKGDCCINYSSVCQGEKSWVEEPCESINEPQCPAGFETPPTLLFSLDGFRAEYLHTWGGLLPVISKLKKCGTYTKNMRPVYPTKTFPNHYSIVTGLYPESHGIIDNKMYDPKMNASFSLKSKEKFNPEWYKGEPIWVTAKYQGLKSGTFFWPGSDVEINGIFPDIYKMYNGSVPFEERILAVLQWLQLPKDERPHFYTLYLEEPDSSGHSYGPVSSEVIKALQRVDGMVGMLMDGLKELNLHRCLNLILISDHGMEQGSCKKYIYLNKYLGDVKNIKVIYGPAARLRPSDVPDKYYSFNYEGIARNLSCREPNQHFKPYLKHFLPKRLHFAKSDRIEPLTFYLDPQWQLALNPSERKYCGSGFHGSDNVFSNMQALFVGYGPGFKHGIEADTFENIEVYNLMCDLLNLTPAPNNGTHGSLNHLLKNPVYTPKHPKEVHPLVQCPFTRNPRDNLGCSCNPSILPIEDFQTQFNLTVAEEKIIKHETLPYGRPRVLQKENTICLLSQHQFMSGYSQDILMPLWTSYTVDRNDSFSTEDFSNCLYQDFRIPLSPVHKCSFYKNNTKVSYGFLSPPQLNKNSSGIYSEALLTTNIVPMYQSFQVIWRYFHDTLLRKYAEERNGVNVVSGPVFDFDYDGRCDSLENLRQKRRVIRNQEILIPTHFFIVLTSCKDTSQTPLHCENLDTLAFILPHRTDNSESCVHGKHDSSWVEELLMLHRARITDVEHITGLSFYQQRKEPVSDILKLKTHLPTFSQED
The next assay concerns B16F10 tumor. The assay is described as follows: Anti-tumor efficacy in B16F10 (melanoma) syngeneic model. The format is in vivo, C57BL/6 mice. An excerpt:
Animals: Female C57BL/6 (4-6 week's age from Taconic).
The B16F10 cells were propagated in DMEM cell culture medium containing 10% Fetal Bovine Serum. Cells were harvested in logarithmic growth phase and implanted subcutaneously ([…]) in the lower abdomen of mice. Tumor growth was monitored daily and after the tumors had reached 80 to 100 mm3, mice were randomized into groups consisting of 8 animals per group. Animals were euthanized when tumors reached around 2000 mm^3 or treatment regime completed or 20% of body weight loss, or developed ulceration and necrosis. Upon termination, tumor samples and blood were collected and analyzed for biomarkers.

Assay [1] has as its target Recombinant Human ENPP-1 Protein (purified in-house) (Homo sapiens (Human), UniProt P22413). Description: ENPP1 Assay (TMP), Example 2. Format: biochemical. How it is done:
Enzyme: 1 ng/μL Recombinant Human ENPP-1 Protein (purified in-house)—Assay Conc.: 5 ng/well of DMSO in 96-well clear assay plates.
A ten point serial dilution of drugs was prepared in 10× in assay buffer with the final assay concentrations starting at 10 μM, 3 μM, 1 μM, 0.3 μM . . . 0 μM. A dilution of DMSO was included as a control. The assay plate was set up as follows with each well in duplicate: 75 μL assay buffer+10 μL ENPP1 inhibitor or DMSO Dilutions+10 μL Substrate+5 μL Enzyme (5 ng). Both the enzyme and substrate were added to opposite sides of the well to ensure that there was no interaction until all wells had both components. The plate was then centrifuged gently for 10 seconds, followed by an incubation at 37° C. for 45 minutes. The reaction was quantified by measuring absorbance at 405 nm using the Envision Plate Reader.

Chain of Recombinant Human ENPP-1 Protein (purified in-house) (P22413 whole entry, looked up): as the sequence (P22413 whole entry, looked up, stated change not applied) above

As a reminder, the ΔTm is the change in melting temperature against a reference sample. One may read the IC50 as the midpoint of a concentration-inhibition curve. In the case of `COc1ccc(NC(=O)CSc2nc3c(C)c(C#N)ncc3[nH]2)cc1O` [Compound 78, 2-((6-Cyano-7-methyl-3H-imidazo[4,5-c]pyridin-2-yl)thio)-N-(3-hydroxy-4-methoxyphenyl) acetamide], the total mineralization entry in the assay with Saos-2 Cells was “significant decrease”. The “Tm (° C.)” value at ENPP1 protein (NT 60.05) stood at 61.16 °C. The ΔTm at 100 µM at ENPP1 protein (read-out: ΔTm (° C.)) was 1.11 °C. Also, the “B16F10 tumor growth inhibition” value with B16F10 tumor (30 mg/kg dose (FIG. 6A / FIG. 13A)) amounted to 28%; in the assay with B16F10 tumor (FIG. 6B / FIG. 13B, dose and route not stated), 27%. Further, the IC50 in assay [1] (FIG. 5A, TMP substrate, read-out: IC50) is 0.271 µM; in assay [1] (Table 5, TMP substrate, read-out: ENPP1 (IC50 μM) TMP), 0.271 µM.
